In brackets after ≈: the same amount, converted by molar mass. Like-named read-outs stand apart in the source and are kept apart here. *1 amine or outer side, *2 acyl side, *3 side chain or, on linkers, in order; H or OH if unused. Where a SMILES comes first, the peptide text is derived from it. Bridges are numbered along the chain shown (N, C = ends). Roman numbers before positions name the chains, in order. [ ]: non-standard residue; d: D form. The star is where a group is joined. ξ: configuration not given here. X9 = C#CCOCCOCCOCCOCCC(=O)N1C[C@@H](C(=O)[*:1])[C@H](C(=O)[*:2])C1; X4 = C#CCOCCOCCOCCOCCNC(=O)CN(CC(=O)[*:1])CC(=O)[*:2]; X10 = O=C([C@@H](N[*:1])[C@H](O)CCc1ccccc1)[*:2]; Propargyl(OCH2CH2)4CO = C#CCOCCOCCOCCOCCC(=O)*; X11 = CCCCCCCC[C@@H](O)[C@H](N[*:1])C(=O)[*:2]; X1 = CCCCCC[C@@H](O)[C@H](N[*:1])C(=O)[*:2]; X3 = CCCCC[C@@H](O)[C@H](N[*:1])C(=O)[*:2]; Nle = CCCC[C@H](N)C(=O)O; ξF = NC(Cc1ccccc1)C(=O)O; Dab = NCC[C@H](N)C(=O)O; ξT = CC(O)C(N)C(=O)O; azaGly = NNC(=O)O
What was measured:
[1] = system: LPS from E. coli O111:B4; test: LPS binding/neutralization by Limulus Amebocyte Lysate (LAL) assay; type: biochemical; conditions: LPS 1-10,000 ng/mL, test article 0.25-10 μM; sum of AUCs relative to maximal AUC (Table 14)
Protocol: The LAL assay (Charles River) was used to determine the binding affinity of test articles to LPS.
(§1) For the assay, 25 μL purified LPS from E. coli O111:1B4 (Sigma) at doses ranging from 1-10,000 ng/mL were incubated with 25 μL of test article at concentrations ranging from 0.25-10 NM. After 5 min incubation at 37° C., 50 μL of LAL reagent, which reacts with lipid A portion from LPS, was added to corresponding wells. After 15 min, absorbance at 405 nm was read on EnSpire plate reader (Perkin Elmer). The % LPS neutralization is calculated relative to a PBS control (background) and LPS control at each concentration (positive control).
LPS neutralization=(1−(absorbance test article−PBS with LAL reagent)/(absorbance no test article−PBS with LAL reagent))×100
To obtain a single value of LPS neutralization for each test article, the area under the curve (AUC) for dose-response of test articles from […] for each LPS concentration was calculated using Prism 7 software. The % LPS neutralization is the sum of the AUCs for each LPS concentration determined relative to the maximal AUC achievable×100.
as §1, with “O111:B4” for “O111:1B4”, “μM.” for “NM.”

[2] = system: Ec 25922 64X-1 (COL^R); type: cell-based, Escherichia coli; conditions: media CA-MHB
Protocol: (§2) Briefly, stock solutions of all antibacterial agents were prepared fresh in appropriate solvents (i.e. PBS, pH 7.4, DMSO, DI, etc.). Stock concentrations for drug conjugates were made at 12.5× the highest final assay concentration. All were serially diluted 2-fold, 8 or 12 times in a 96-well PCR plate (VWR cat. no. 83007-374). Bacterial cell suspensions generated from Mueller-Hinton agar (MHA) plate cultures were prepared in 0.85% saline and adjusted to ˜0.1 OD600 nm. Next, cell suspensions were diluted 1:200 in RPMI containing 5% Luria Broth (LB) to improve bacterial growth (BD Difco, cat. no. 244620) to a concentration of ˜5×10^5 CFU (colony-forming units)/mL. Due to poor solubility in Mueller-Hinton broth media, drug conjugates were evaluated in RPMI 1640 medium (+) L-glutamine, (+) sodium bicarbonate, pH 7.4 (“RPMI B”; Gibco, cat. no. 11875-085) as has been described as a more physiologically-relevant media for susceptibility testing of antibacterial compounds (1). For the conjugates, 92 μL of each cell suspension in RPMI B were added in the same 96-well plate assay format. […] Compounds were tested against a 14-strain panel comprised of E. coli (Ec), A. baumannii (Ab), P. aeruginosa (Pa), and K. pneumoniae (Kp) that were obtained from ATCC (Ec 25922, Ec 2489, Ab 19606, Pa 27853, Pa PAO1, Kp 43816, Kp 10031), Centers for Disease Control and Prevention (Ec AR0349), BEI Resources (Ab AB5075), Micromyx LLC (Ab 8990, Kp 6951), and Belgian Coordinated Collections of Microorganisms (Pa LES431) or generated in-house (Ec 25922 64X-1). […] E. coli strain ATCC 25922 and P. aeruginosa strain LES431 were run in the presence and absence of 50% heat-inactivated fetal bovine serum (FBS; Sigma, cat. no. F4135-100 mL). Plates were mixed by shaking then incubated at 35° C. overnight (16-20 h).

[3] = system: Ec AR0349 (mcr-1, COL^R); type: cell-based, Escherichia coli; conditions: media CA-MHB
Protocol: as §2

[4] = system: Kp 6951 (COL^R); type: cell-based, Klebsiella pneumoniae
Protocol: (§3) Briefly, stock solutions of all antibacterial agents were prepared fresh in appropriate solvents (i.e. PBS, pH 7.4, DMSO, DI, etc.). Stock concentrations for drug conjugates were made at 12.5× the highest final assay concentration. All were serially diluted 2-fold, 8 or 12 times in a 96-well PCR plate (VWR cat. no. 83007-374). Bacterial cell suspensions generated from Mueller-Hinton agar (MHA) plate cultures were prepared in 0.85% saline and adjusted to ˜0.1 OD600 nm. […] For the conjugates, 92 μL of each cell suspension in RPMI B were added in the same 96-well plate assay format. […] Compounds were tested against a 14-strain panel comprised of E. coli (Ec), A. baumannii (Ab), P. aeruginosa (Pa), and K. pneumoniae (Kp) that were obtained from ATCC (Ec 25922, Ec 2489, Ab 19606, Pa 27853, Pa PAO1, Kp 43816, Kp 10031), Centers for Disease Control and Prevention (Ec AR0349), BEI Resources (Ab AB5075), Micromyx LLC (Ab 8990, Kp 6951), and Belgian Coordinated Collections of Microorganisms (Pa LES431) or generated in-house (Ec 25922 64X-1). […] E. coli strain ATCC 25922 and P. aeruginosa strain LES431 were run in the presence and absence of 50% heat-inactivated fetal bovine serum (FBS; Sigma, cat. no. F4135-100 mL). Plates were mixed by shaking then incubated at 35° C. overnight (16-20 h).

[5] = system: Kp 10031; type: cell-based, Klebsiella pneumoniae
Protocol: as §3

[6] = system: Kp 43816; type: cell-based, Klebsiella pneumoniae
Protocol: as §3

[7] = system: Ab AB5075; type: cell-based, Acinetobacter baumannii
Protocol: as §3

[8] = system: Ab 8990 (COL^R); type: cell-based, Acinetobacter baumannii
Protocol: as §3

[9] = system: Ab 19606 (COLhet^R); type: cell-based, Acinetobacter baumannii; conditions: media CA-MHB
Protocol: as §2

[10] = system: Pa 27853; type: cell-based, Pseudomonas aeruginosa
Protocol: as §3

[11] = system: Pa PAO1; type: cell-based, Pseudomonas aeruginosa
Protocol: as §3

[12] = system: Pa LES431; type: cell-based, Pseudomonas aeruginosa
Protocol: as §3

[13] = system: Ec 25922; type: cell-based, Escherichia coli
Protocol: as §3

[14] = system: Ec 2469; type: cell-based, Escherichia coli
Protocol: as §3

C#CCOCCOCCOCCOCCC(=O)N[C@@H](CCCC)C(=O)N[C@@H](CCN)C(=O)N[C@H](C(=O)N[C@@H](CCN)C(=O)N[C@H]1CCNC(=O)[C@H]([C@@H](C)O)NC(=O)[C@H](CCN)NC(=O)[C@H](CCN)NC(=O)[C@H](CC(C)C)NC(=O)[C@@H](Cc2ccccc2)NC(=O)[C@H](CCN)NC1=O)[C@H](O)CCCCCC [Int-80] ({Propargyl(OCH2CH2)4CO}-[Nle][Dab][X1][Dab][Dab][Dab][dF]L[Dab][Dab]T; lactam 5-C)
% LPS neutralization of TM [1]: 55.7%

C#CCOCCOCCOCCOCCC(=O)N[C@@H](CCN)C(=O)N[C@H](C(=O)N[C@@H](CCN)C(=O)N[C@H]1CCNC(=O)[C@H]([C@@H](C)O)NC(=O)[C@H](CCN)NC(=O)[C@H](CCN)NC(=O)[C@H](CC(C)C)NC(=O)[C@@H](Cc2ccccc2)NC(=O)[C@H](CCN)NC1=O)[C@H](O)CCc1ccccc1 [Int-83] ({Propargyl(OCH2CH2)4CO}-[Dab][X10][Dab][Dab][Dab][dF]L[Dab][Dab]T; lactam 4-C)
% LPS neutralization of TM [1]: 30.9%

C#CCOCCOCCOCCOCCC(=O)N[C@@H](CCN)C(=O)N[C@H](C(=O)N[C@@H](CCN)C(=O)N[C@H]1CCNC(=O)[C@H]([C@@H](C)O)NC(=O)[C@H](CCN)NC(=O)[C@H](CCN)NC(=O)[C@H](CC(C)C)NC(=O)[C@@H](Cc2ccccc2)NC(=O)[C@H](CCN)NC1=O)[C@H](O)CCCCCCCC [Int-84] ({Propargyl(OCH2CH2)4CO}-[Dab][X11][Dab][Dab][Dab][dF]L[Dab][Dab]T; lactam 4-C)
% LPS neutralization of TM [1]: 53.7%

C#CCOCCOCCOCCOCCC(=O)N[C@@H](CCCC)C(=O)N[C@@H](CCN)C(=O)N[C@H](C(=O)N[C@@H](CCN)C(=O)N[C@H]1CCNC(=O)[C@H]([C@@H](C)O)NC(=O)[C@H](CCN)NC(=O)[C@H](CCN)NC(=O)[C@H](CC(C)C)NC(=O)[C@@H](Cc2ccccc2)NC(=O)[C@H](CCN)NC1=O)[C@H](O)CCCCC [Int-94] ({Propargyl(OCH2CH2)4CO}-[Nle][Dab][X3][Dab][Dab][Dab][dF]L[Dab][Dab]T; lactam 5-C)
% LPS neutralization of TM [1]: 79.3%

C#CCOCCOCCOCCOCCC(=O)N1C[C@@H](C(=O)N[C@@H](CCCC)C(=O)N[C@@H](CCN)C(=O)N[C@H](C(=O)NNC(=O)N[C@H]2CCNC(=O)[C@H]([C@@H](C)O)NC(=O)[C@H](CCN)NC(=O)[C@H](CCN)NC(=O)[C@H](CC(C)C)NC(=O)C(Cc3ccccc3)NC(=O)[C@H](CCN)NC2=O)[C@@H](C)O)[C@H](C(=O)N[C@@H](CCCC)C(=O)N[C@@H](CCN)C(=O)N[C@H](C(=O)NNC(=O)N[C@H]2CCNC(=O)C(C(C)O)NC(=O)[C@H](CCN)NC(=O)[C@H](CCN)NC(=O)[C@H](CC(C)C)NC(=O)[C@@H](Cc3ccccc3)NC(=O)[C@H](CCN)NC2=O)[C@@H](C)O)C1 (some centres unmarked) [Int-107] (I: [Nle][Dab]T[azaGly][Dab][Dab][dF]L[Dab][Dab][ξT] / II: [Nle][Dab]T[azaGly][Dab][Dab][ξF]L[Dab][Dab]T; lactam I:5-I:C, II:5-II:C; linker I:N-II:N via X9)
MIC [2]: 4 µg/mL (≈ 1.52 µM)
MIC [3]: 2 µg/mL (≈ 0.759 µM)
MIC ([4]; Kp 6951 (COL^R), media CA-MHB): 16 µg/mL (≈ 6.07 µM)
MIC ([5]; Kp 10031, media CA-MHB): 2 µg/mL (≈ 0.759 µM)
MIC ([6]; Kp 43816, media CA-MHB): 2 µg/mL (≈ 0.759 µM)
MIC ([7]; Ab AB5075, media CA-MHB): 2 µg/mL (≈ 0.759 µM)
MIC ([8]; Ab 8990 (COL^R), media CA-MHB): >128 µg/mL
MIC [9]: 2 µg/mL (≈ 0.759 µM)
MIC ([10]; Pa 27853, media CA-MHB): 2 µg/mL (≈ 0.759 µM)
MIC ([11]; Pa PAO1, media CA-MHB): 2 µg/mL (≈ 0.759 µM)
MIC ([12]; Pa LES431 + FBS (50%, heat-inactivated), media CA-MHB): 8 µg/mL
MIC ([12]; Pa LES431, media CA-MHB): 2 µg/mL (≈ 0.759 µM)
MIC ([13]; Ec 25922 + FBS (50%, heat-inactivated), media CA-MHB): 0.5 µg/mL
MIC ([13]; Ec 25922, media CA-MHB): 2 µg/mL (≈ 0.759 µM)
MIC ([14]; Ec 2469, media CA-MHB): 2 µg/mL (≈ 0.759 µM)

C#CCOCCOCCOCCOCCNC(=O)CN(CC(=O)N[C@@H](CCCC)C(=O)N[C@@H](CCN)C(=O)N[C@H](C(=O)NNC(=O)N[C@H]1CCNC(=O)[C@H]([C@@H](C)O)NC(=O)[C@H](CCN)NC(=O)[C@H](CCN)NC(=O)[C@H](CC(C)C)NC(=O)[C@@H](Cc2ccccc2)NC(=O)[C@H](CCN)NC1=O)[C@H](O)CCCCC)CC(=O)N[C@@H](CCCC)C(=O)N[C@@H](CCN)C(=O)N[C@H](C(=O)NNC(=O)N[C@H]1CCNC(=O)[C@H]([C@@H](C)O)NC(=O)[C@H](CCN)NC(=O)[C@H](CCN)NC(=O)[C@H](CC(C)C)NC(=O)[C@@H](Cc2ccccc2)NC(=O)[C@H](CCN)NC1=O)[C@H](O)CCCCC [Int-111] (I: [Nle][Dab][X3][azaGly][Dab][Dab][dF]L[Dab][Dab]T / II: [Nle][Dab][X3][azaGly][Dab][Dab][dF]L[Dab][Dab]T; lactam I:5-I:C, II:5-II:C; linker I:N-II:N via X4)
MIC [2]: 4 µg/mL (≈ 1.45 µM)
MIC [3]: 4 µg/mL (≈ 1.45 µM)
MIC [4]: 8 µg/mL (≈ 2.91 µM)
MIC [5]: 4 µg/mL (≈ 1.45 µM)
MIC [6]: 4 µg/mL (≈ 1.45 µM)
MIC [7]: 4 µg/mL (≈ 1.45 µM)
MIC [8]: 32 µg/mL (≈ 11.6 µM)
MIC [9]: 4 µg/mL (≈ 1.45 µM)
MIC [10]: 4 µg/mL (≈ 1.45 µM)
MIC ([11]; PAO1): 8 µg/mL (≈ 2.91 µM)
MIC [12]: 4 µg/mL (≈ 1.45 µM)
MIC [13]: 4 µg/mL (≈ 1.45 µM)
MIC [14]: 4 µg/mL (≈ 1.45 µM)

— US20230165970A1, “COMPOSITIONS AND METHODS FOR THE TREATMENT OF BACTERIAL INFECTIONS” (priority 2017, published 2023)
